# Source: US8791107B2, “N-substituted oxazinopteridines and oxazinopteridinones” (Takeda Pharmaceutical Company Limited, priority 2011, dated 2014)
# Molecular target: T1, PI3Kδ (Homo sapiens, UniProt O00329)
# T1 construct: The protein is full length and co-expressed with untagged PIK3R1; GST; purchased Invitrogen PV5274
# Assay: PI3Kδ inhibition, modified PIK3CD Adapta TR-FRET assay
# Type: biochemical
# Conditions: recombinant GST-tagged full length PIK3CD co-expressed with PIK3R1 (p85α); 2 μM ATP, 50 μM PIP2
# How it was run: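 Inhibition was derived from % conversion against positive and negative controls, with ADP read by Adapta Eu-antibody/tracer TR-FRET. Room-temperature reactions used GST-PIK3CD/p85α in HEPES pH 7.5 buffer (MgCl2, EGTA, NaCl, CHAPS, fresh DTT), 1% DMSO final and 12 concentrations. They were initiated by adding 2 μM ATP/50 μM PIP2 solution.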
# T1 sequence (O00329 whole entry): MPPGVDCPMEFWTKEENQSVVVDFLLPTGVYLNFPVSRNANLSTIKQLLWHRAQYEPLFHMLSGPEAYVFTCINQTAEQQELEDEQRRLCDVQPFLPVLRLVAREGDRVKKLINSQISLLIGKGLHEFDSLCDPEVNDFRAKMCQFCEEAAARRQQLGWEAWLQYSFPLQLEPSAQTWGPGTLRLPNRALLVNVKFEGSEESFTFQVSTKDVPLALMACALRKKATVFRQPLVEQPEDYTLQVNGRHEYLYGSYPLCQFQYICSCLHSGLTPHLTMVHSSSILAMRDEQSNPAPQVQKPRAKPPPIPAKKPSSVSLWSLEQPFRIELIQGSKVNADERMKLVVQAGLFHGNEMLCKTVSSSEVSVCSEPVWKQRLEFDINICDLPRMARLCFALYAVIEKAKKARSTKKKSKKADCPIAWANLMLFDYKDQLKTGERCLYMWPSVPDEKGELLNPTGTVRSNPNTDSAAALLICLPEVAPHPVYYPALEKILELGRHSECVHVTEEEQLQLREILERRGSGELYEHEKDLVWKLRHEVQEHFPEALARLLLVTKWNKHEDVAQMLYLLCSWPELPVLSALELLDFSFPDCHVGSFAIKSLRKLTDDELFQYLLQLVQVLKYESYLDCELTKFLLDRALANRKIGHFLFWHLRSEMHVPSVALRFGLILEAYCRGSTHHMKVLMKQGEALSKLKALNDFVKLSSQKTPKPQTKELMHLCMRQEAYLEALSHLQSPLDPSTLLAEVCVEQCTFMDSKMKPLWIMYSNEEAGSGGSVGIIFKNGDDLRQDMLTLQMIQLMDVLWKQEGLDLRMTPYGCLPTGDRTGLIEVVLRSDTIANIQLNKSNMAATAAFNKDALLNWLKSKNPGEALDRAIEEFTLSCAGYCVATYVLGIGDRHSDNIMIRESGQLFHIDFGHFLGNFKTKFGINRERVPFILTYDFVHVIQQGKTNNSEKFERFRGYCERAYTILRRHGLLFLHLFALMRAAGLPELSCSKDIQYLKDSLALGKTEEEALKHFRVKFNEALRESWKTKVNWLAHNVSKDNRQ
# T1 sequence (P27986 whole entry partner): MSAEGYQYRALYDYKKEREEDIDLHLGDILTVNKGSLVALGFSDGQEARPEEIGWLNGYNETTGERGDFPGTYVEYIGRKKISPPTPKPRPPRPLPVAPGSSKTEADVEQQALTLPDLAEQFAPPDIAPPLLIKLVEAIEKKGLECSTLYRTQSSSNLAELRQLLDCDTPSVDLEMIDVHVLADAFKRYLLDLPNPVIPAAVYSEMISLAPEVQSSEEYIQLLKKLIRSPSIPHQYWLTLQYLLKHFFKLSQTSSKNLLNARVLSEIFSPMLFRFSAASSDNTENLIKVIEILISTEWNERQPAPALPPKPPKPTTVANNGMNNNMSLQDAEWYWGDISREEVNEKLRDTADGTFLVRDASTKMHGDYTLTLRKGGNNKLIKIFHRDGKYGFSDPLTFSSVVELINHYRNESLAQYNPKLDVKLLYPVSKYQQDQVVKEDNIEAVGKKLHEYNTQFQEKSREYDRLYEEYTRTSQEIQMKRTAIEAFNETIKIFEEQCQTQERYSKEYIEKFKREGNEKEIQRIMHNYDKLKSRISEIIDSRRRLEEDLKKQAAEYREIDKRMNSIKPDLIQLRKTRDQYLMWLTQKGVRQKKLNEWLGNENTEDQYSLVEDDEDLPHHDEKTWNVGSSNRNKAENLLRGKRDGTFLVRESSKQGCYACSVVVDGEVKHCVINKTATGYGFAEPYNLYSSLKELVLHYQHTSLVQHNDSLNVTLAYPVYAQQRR
row,PI3Kδ Inhibition (pIC50),Structure (SMILES)
1,6.9,"Cc1ccc([C@H](C)N2C(=O)[C@H]3COCCN3c3nc(-c4cccc5[nH]ccc45)ncc32)cc1 [Example 154, (R)-2-(1H-indol-4-yl)-5-((5)-1-p-tolylethyl)-6a,7,9,10-tetrahydro-[1,4]oxazino[3,4-h]pteridin-6(5H)-one]"

# Same assay, conditions: recombinant GST-tagged full length PIK3CD co-expressed with PIK3R1 (p85α); 2 μM ATP, 50 μM PIP2; read-out: PI3Kδ Inhibition (pIC50) (converted)
row,IC50 [nM],Structure (SMILES)
1,2510,"CS(=O)(=O)c1ccc(CN2C(=O)C3COCCN3c3nc(-c4ccc5[nH]c(=O)[nH]c5c4)ncc32)cc1 (stereo not shown) [Example 119, 5-(4-(methylsulfonyl)benzyl)-2-(2-oxo-2,3-dihydro-1H-benzo[d]imidazol-5-yl)-6a,7,9,10-tetrahydro-[1,4]oxazino[3,4-h]pteridin-6(5H)-one]"
2,7940,"CS(=O)(=O)c1ccc(CN2C(=O)C3COCCN3c3nc(-c4cccc(NS(=O)(=O)C5CC5)c4)ncc32)cc1 (stereo not shown) [Example 120, N-(3-(5-(4-(methylsulfonyl)benzyl)-6-oxo-5,6,6a,7,9,10-hexahydro-[1,4]oxazino[3,4-h]pteridin-2-yl)phenyl)cyclopropanesulfonamide]"
3,31.6,"CS(=O)(=O)c1ccc(CN2C(=O)C3COCCN3c3nc(-c4cnc5cc[nH]c5c4)ncc32)cc1 (stereo not shown) [Example 121, 5-(4-(methylsulfonyl)benzyl)-2-(1H-pyrrolo[3,2-b]pyridin-6-yl)-6a,7,9,10-tetrahydro-[1,4]oxazino[3,4-h]pteridin-6(5H)-one]"
4,1000,"CNC(=O)c1cccc(-c2ncc3c(n2)N2CCOCC2C(=O)N3Cc2ccc(S(C)(=O)=O)cc2)c1 (stereo not shown) [Example 122, N-methyl-3-(5-(4-(methylsulfonyl)benzyl)-6-oxo-5,6,6a,7,9,10-hexahydro-[1,4]oxazino[3,4-h]pteridin-2-yl)benzamide]"
5,0.794,"CS(=O)(=O)c1ccc(CN2C(=O)C3COCCN3c3nc(-c4cccc5[nH]ccc45)ncc32)cc1 (stereo not shown) [Example 123, 2-(1H-indol-4-yl)-5-(4-(methylsulfonyl)benzyl)-6a,7,9,10-tetrahydro-[1,4]oxazino[3,4-h]pteridin-6(5H)-one]"
6,10,"CS(=O)(=O)c1ccc(CN2C(=O)C3COCCN3c3nc(-c4cnc(N)nc4)ncc32)cc1 (stereo not shown) [Example 125, 2-(2-aminopyrimidin-5-yl)-5-(4-(methylsulfonyl)benzyl)-6a,7,9,10-tetrahydro-[1,4]oxazino[3,4-h]pteridin-6(5H)-one]"
7,126,"CS(=O)(=O)c1ccc(CN2C(=O)C3COCCN3c3nc(-c4ccc5[nH]ccc5c4)ncc32)cc1 (stereo not shown) [Example 127, 2-(1H-indol-5-yl)-5-(4-(methylsulfonyl)benzyl)-6a,7,9,10-tetrahydro-[1,4]oxazino[3,4-h]pteridin-6(5H)-one]"
8,501,"CS(=O)(=O)c1ccc(CN2C(=O)C3COCCN3c3nc(-c4cccc(-n5cccn5)c4)ncc32)cc1 (stereo not shown) [Example 128, 2-(3-(1H-pyrazol-1-yl)phenyl)-5-(4-(methylsulfonyl)benzyl)-6a,7,9,10-tetrahydro-[1,4]oxazino[3,4-h]pteridin-6(5H)-one]"
9,126,Cc1n[nH]cc1-c1ncc2c(n1)N1CCOCC1C(=O)N2Cc1ccc(S(C)(=O)=O)cc1 (stereo not shown) [Example 130]
10,126,"CS(=O)(=O)c1ccc(CN2C(=O)C3COCCN3c3nc(-c4ccc(N)c(N)c4)ncc32)cc1 (stereo not shown) [Example 131, 2-(3,4-diaminophenyl)-5-(4-(methylsulfonyl)benzyl)-6a,7,9,10-tetrahydro-[1,4]oxazino[3,4-h]pteridin-6(5H)-one]"
11,6310,"CS(=O)(=O)c1ccc(CN2C(=O)C3COCCN3c3nc(-c4cccc(N5CCCS5(=O)=O)c4)ncc32)cc1 (stereo not shown) [Example 132, 2-(3-(1,1-dioxidoisothiazolidin-2-yl)phenyl)-5-(4-(methylsulfonyl)benzyl)-6a,7,9,10-tetrahydro-[1,4]oxazino[3,4-h]pteridin-6(5H)-one]"
12,> 100,"CS(=O)(=O)c1ccc(CN2C(=O)C3COCCN3c3nc(-c4c[nH]c5c(Cl)cccc45)ncc32)cc1 (stereo not shown) [Example 134, 2-(7-chloro-1H-indol-3-yl)-5-(4-(methylsulfonyl)benzyl)-6a,7,9,10-tetrahydro-[1,4]oxazino[3,4-h]pteridin-6(5H)-one]"
13,501,"COc1ccc2c(-c3ncc4c(n3)N3CCOCC3C(=O)N4Cc3ccc(S(C)(=O)=O)cc3)c[nH]c2c1 (stereo not shown) [Example 136, 2-(6-methoxy-1H-indol-3-yl)-5-(4-(methylsulfonyl)benzyl)-6a,7,9,10-tetrahydro-[1,4]oxazino[3,4-h]pteridin-6(5H)-one]"
14,501,"CS(=O)(=O)c1ccc(CN2C(=O)C3COCCN3c3nc(-c4c[nH]c5ncccc45)ncc32)cc1 (stereo not shown) [Example 137, 5-(4-(methylsulfonyl)benzyl)-2-(1H-pyrrolo[2,3-b]pyridin-3-yl)-6a,7,9,10-tetrahydro-[1,4]oxazino[3,4-h]pteridin-6(5H)-one]"
15,3160,"COc1cccc2c(-c3ncc4c(n3)N3CCOCC3C(=O)N4Cc3ccc(S(C)(=O)=O)cc3)c[nH]c12 (stereo not shown) [Example 138, 2-(7-methoxy-1H-indol-3-yl)-5-(4-(methylsulfonyl)benzyl)-6a,7,9,10-tetrahydro-[1,4]oxazino[3,4-h]pteridin-6(5H)-one]"
16,79.4,"CS(=O)(=O)c1ccc(CN2C(=O)C3COCCN3c3nc(-c4cccc5[nH]cnc45)ncc32)cc1 (stereo not shown) [Example 139, 2-(1H-benzo[d]imidazol-4-yl)-5-(4-(methylsulfonyl)benzyl)-6a,7,9,10-tetrahydro-[1,4]oxazino[3,4-h]pteridin-6(5H)-one]"
17,631,"COc1cc(-c2ncc3c(n2)N2CCOCC2C(=O)N3Cc2ccc(S(C)(=O)=O)cc2)ccn1 (stereo not shown) [Example 140, 2-(2-methoxypyridin-4-yl)-5-(4-(methylsulfonyl)benzyl)-6a,7,9,10-tetrahydro-[1,4]oxazino[3,4-h]pteridin-6(5H)-one]"
18,> 10000,"CS(=O)(=O)c1ccc(CN2C(=O)C3COCCN3c3nc(-c4cc(N)ccn4)ncc32)cc1 (stereo not shown) [Example 141, 2-(4-aminopyridin-2-yl)-5-(4-(methylsulfonyl)benzyl)-6a,7,9,10-tetrahydro-[1,4]oxazino[3,4-h]pteridin-6(5H)-one]"
19,20,"CS(=O)(=O)c1ccc(CN2C(=O)C3COCCN3c3nc(-c4ccc(F)c5[nH]ccc45)ncc32)cc1 (stereo not shown) [Example 142, 2-(7-fluoro-1H-indol-4-yl)-5-(4-(methylsulfonyl)benzyl)-6a,7,9,10-tetrahydro-[1,4]oxazino[3,4-h]pteridin-6(5H)-one]"
20,2000,"Cc1c[nH]c2c(F)ccc(-c3ncc4c(n3)N3CCOCC3C(=O)N4Cc3ccc(S(C)(=O)=O)cc3)c12 (stereo not shown) [Example 143, 2-(7-fluoro-3-methyl-1H-indol-4-yl)-5-(4-(methylsulfonyl)benzyl)-6a,7,9,10-tetrahydro-[1,4]oxazino[3,4-h]pteridin-6(5H)-one]"
21,2.51,"CS(=O)(=O)c1ccc(CN2C(=O)C3COCCN3c3nc(-c4cncc5[nH]ccc45)ncc32)cc1 (stereo not shown) [Example 144, 5-(4-(methylsulfonyl)benzyl)-2-(1H-pyrrolo[2,3-c]pyridin-4-yl)-6a,7,9,10-tetrahydro-[1,4]oxazino[3,4-h]pteridin-6(5H)-one]"
22,25.1,"O=C1C2COCCN2c2nc(-c3cccc4[nH]ccc34)ncc2N1Cc1ccccc1 (stereo not shown) [Example 145, 5-benzyl-2-(1H-indol-4-yl)-6a,7,9,10-tetrahydro-[1,4]oxazino[3,4-h]pteridin-6(5H)-one]"
23,31.6,"O=C1C2COCCN2c2nc(-c3cccc4[nH]ccc34)ncc2N1C1CCc2ccc(Cl)cc21 (stereo not shown) [Example 146, 5-(6-chloro-2,3-dihydro-1H-inden-1-yl)-2-(1H-indol-4-yl)-6a,7,9,10-tetrahydro-[1,4]oxazino[3,4-h]pteridin-6(5H)-one]"
24,20,"CNC(=O)Nc1ccc(-c2ncc3c(n2)N2CCOCC2C(=O)N3C2CCc3ccc(Cl)cc32)cc1 (stereo not shown) [Example 147, 1-(4-(5-(6-chloro-2,3-dihydro-1H-inden-1-yl)-6-oxo-5,6,6a,7,9,10-hexahydro-[1,4]oxazino[3,4-h]pteridin-2-yl)phenyl)-3-methylurea]"
25,3.98,"CNC(=O)Nc1ccc(-c2ncc3c(n2)N2CCOCC2C(=O)N3C2CCc3ccc(OC)cc32)cc1 (stereo not shown) [Example 148, 1-(4-(5-(6-methoxy-2,3-dihydro-1H-inden-1-yl)-6-oxo-5,6,6a,7,9,10-hexahydro-[1,4]oxazino[3,4-h]pteridin-2-yl)phenyl)-3-methylurea]"
26,5010,"O=C1Nc2cnc(-c3cccc4c3OCO4)nc2N2CCOCC12 (stereo not shown) [Example 151, 2-(benzo[d][1,3]dioxol-4-yl)-6a,7,9,10-tetrahydro-[1,4]oxazino[3,4-h]pteridin-6(5H)-one]"
27,501,"O=C1Nc2cnc(-c3cccc4[nH]cnc34)nc2N2CCOCC12 (stereo not shown) [Example 152, 2-(1H-benzo[d]imidazol-4-yl)-6a,7,9,10-tetrahydro-[1,4]oxazino[3,4-h]pteridin-6(5H)-one]"
28,25.1,"CS(=O)(=O)c1ccc(CN2C(=O)C3COCCN3c3nc(-c4ccnc5[nH]ccc45)ncc32)cc1 (stereo not shown) [Example 155, 5-(4-(methylsulfonyl)benzyl)-2-(1H-pyrrolo[2,3-b]pyridin-4-yl)-6a,7,9,10-tetrahydro-[1,4]oxazino[3,4-h]pteridin-6(5H)-one]"
29,316,"Cc1nccn1-c1ncc2c(n1)N1CCOCC1C(=O)N2Cc1ccc(S(C)(=O)=O)cc1 (stereo not shown) [Example 156, 2-(2-methyl-1H-imidazol-1-yl)-5-(4-(methylsulfonyl)benzyl)-6a,7,9,10-tetrahydro-[1,4]oxazino[3,4-h]pteridin-6(5H)-one]"

row,Structure (SMILES),IC50 [nM]
1,"CS(=O)(=O)c1ccc(CN2C(=O)C3COCCN3c3nc(-c4ccc5cn[nH]c5c4)ncc32)cc1 (stereo not shown) [Example 124, 2-(1H-indazol-6-yl)-5-(4-(methylsulfonyl)benzyl)-6a,7,9,10-tetrahydro-[1,4]oxazino[3,4-h]pteridin-6(5H)-one]",3980
